Measurements from US10912740B2, “Treating hepatitis C with cannabidiol” (Vilotos Pharmaceuticals, Inc., priority 2017, dated 2021).
Entries after “also recorded” stand apart in the source; their conditions may differ.

Legend:
hepatitis C virus = assay: Dose-response assay against hepatitis C virus (EC50); format: cell-based; conditions: for EC50: Hepatitis C virus, read-out: ES50 (EC50 against hepatitis C virus)
Description: (§1) Huh7.5 cells are grown in Dulbecco's modified essential media (DMEM), 10% fetal bovine serum (FBS), 1% penicillin-streptomycin (pen-strep), 1% Non-essential amino acids (NEAA) in a 5% CO2 incubator at 37° C. Huh7.5 cells were seeded at 1×10^4 cells per well into 96-well plates according to Southern Research Institute standard format. The test article was serially diluted with DMEM plus 5% FBS. The diluted compound in the amount of 50 μl was mixed with equal volume of cell culture-derived HCV (HCVcc), then applied to appropriate wells in the plate. Human interferon alpha-2b (rIFNα-2b) was included as a positive control compound. After 72 hr incubation at 37° C., the cells were lysed for measurement of luciferase activity using Renilla Luciferase Assay System (Promega) according to manufacturer's instruction. The number of cells in each well were determined by CytoTox-1 reagent (Promega). Test articles were tested with 6 serial dilution in triplicate to derive, if applicable, IC50 and IC90 (concentration inhibiting HCVcc infectivity by 50% and 90%, respectively), TC50 (concentration decreasing cell viability by 50%) and SI (selective index: TC50/IC50) values. In the replicon assay, Sub-confluent cultures of the ET line were plated out into 96-well plates that are dedicated for the analysis of cell numbers (cytotoxicity) or antiviral activity and the next day drugs were added to the appropriate wells. Cells were processed 72 hours later when the cells were still sub-confluent. After six half-log serial dilutions of the compound, the applicable EC50 (concentration inhibiting HCV replicon by 50%), EC90 (concentration inhibiting HCV replicon by 90%), IC50 (concentration decreasing cell viability by […]) and SI (selective index: […]) values were derived. HCV replicon levels are assessed as replicon derived Luc activity. The toxic concentration of drug that reduced cell numbers was assessed by the CytoTox-1 cell proliferation assay (Promega), a fluorometric assay of cell numbers (and cytotoxicity). […]

HBV = assay: Anti-hepatitis B assay: extracellular HBV DNA by TaqMan PCR from HepG2 2.2.15 cells; format: cell-based, Hepatitis B virus (wild-type ayw1 strain); conditions: for Percentage virus inhibition: HBV, HepG2 2.2.15 cells, six days
From the text: (§2) The pure cannabis cannabinoid CBD of FIG. 2 was subjected to a modified anti-hepatitis B assay. [Korba B E, Gerin J L, Use Of A Standardized Cell Culture Assay To Assess Activities Of Nucleoside Analogs Against Hepatitis B Virus Replication, Antiviral Res, 19:55-70 (1992); Korba B E, Milman G., A Cell Culture Assay For Compounds Which Inhibit Hepatitis B Virus Replication, Antiviral Res 1991; 15:217-28]. The modifications allowed use in real time quantitative polymerase chain reaction (PCR) (TaqMan) to measure extracellular HBV DNA copy number associated with virions released from HepG2 2.2.15 cells. The HepG2 2.2.15 cell line is a stable cell line producing high levels of the wild-type ayw1 strain of HBV. Antiviral compounds blocking any later step of viral replication such as transcription, translation, pregenomeencapsidation, reverse transcription, particle assembly, and release can be identified and characterized using this cell line. In brief, HepG2 2.2.15 cells are plated in 96-well microtiter plates. Only the interior wells were utilized to reduce “edge effects” observed during cell culture; the exterior wells were filled with complete medium to help minimize sample evaporation. After incubation with 5% CO2 atmosphere at 37° C. for 16-24 h, the confluent monolayer of HepG2 2.2.15 cells was washed and the medium was replaced with complete medium containing test compounds at a single concentration of 10 μM. Three days later, the culture medium was replaced with fresh medium and test compounds at a single concentration of 10 μM. Six days following the initial administration of the test compounds, the cell culture supernatant was collected, treated with pronase and DNAse, and then used in a real-time quantitative TaqMan PCR assay. Antiviral activity was determined by calculating the reduction in HBV DNA levels compared to untreated virus control samples. Compound cytotoxicity was determined using MTS (CellTiter 96 Reagent, Promega) to measure cell viability as described above.

[1] = Cytotoxicity (CC50) in the HCV dose-response assay; format: cell-based; conditions: human, Huh7.5 cells
Description: (§3) Huh7.5 cells are grown in Dulbecco's modified essential media (DMEM), 10% fetal bovine serum (FBS), 1% penicillin-streptomycin (pen-strep), 1% Non-essential amino acids (NEAA) in a 5% CO2 incubator at 37° C. Huh7.5 cells were seeded at 1×10^4 cells per well into 96-well plates according to Southern Research Institute standard format. The test article was serially diluted with DMEM plus 5% FBS. The diluted compound in the amount of 50 μl was mixed with equal volume of cell culture-derived HCV (HCVcc), then applied to appropriate wells in the plate. Human interferon alpha-2b (rIFNα-2b) was included as a positive control compound. After 72 hr incubation at 37° C., the cells were lysed for measurement of luciferase activity using Renilla Luciferase Assay System (Promega) according to manufacturer's instruction. The number of cells in each well were determined by CytoTox-1 reagent (Promega). […] HCV replicon levels are assessed as replicon derived Luc activity. The toxic concentration of drug that reduced cell numbers was assessed by the CytoTox-1 cell proliferation assay (Promega), a fluorometric assay of cell numbers (and cytotoxicity). […]

Huh7.5 cells = assay: Cytotoxicity (CytoTox-1 cell number) in the HCVcc assay; format: cell-based; conditions: cells used to culture HCV
Description: as §3

[2] = as above; format: cell-based; conditions: human, Huh7.5 cells infected with HCVcc; HCVcc assay, Huh7.5 cells; CBD at 10 μM
Description: as §3

HepG2 2.2.15 cells = assay: Compound cytotoxicity (MTS cell viability) in the anti-hepatitis B assay; format: cell-based; conditions: cells used to culture HBV
From the text: as §2

[3] = as above; format: cell-based; conditions: human, HepG2 2.2.15 cells (stable HBV-producing line), HBV assay, HepG2 2.2.15 cells
From the text: as §2

HCVcc = assay: Anti hepatitis C activity assay: HCVcc infectivity in Huh7.5 cells, luciferase readout, single dose; format: cell-based, Hepatitis C virus
Description: as §1

| SMILES | EC50 (hepatitis C virus) | Inhibition of the HCV virus in the dose-response assay (in words) (hepatitis C virus; dose-response assay (Table 2)) | Percentage virus inhibition (HBV; CBD at single dose 10 (title uM, row head pM)) | Activity against HBV in vitro / inhibition of viral replication (in words) (HBV; in vitro, single-dose assay) | CC50 at 72 h [1] | Toxicity against Huh7.5 cells (in words) (Huh7.5 cells) | cytotoxicity at 72 h, 10 µM [2] | Cytotoxicity against HepG2 2.2.15 cells (in words) (HepG2 2.2.15 cells) | cytotoxicity at 6 days, 10 µM ([3]; CBD at 10 (title uM, row head pM)) | Percentage virus inhibition (HCVcc; HCVcc, CBD at single concentration 10 μM, Huh7.5 cells, 72 hr, 10 µM) | inhibition at 10 µM (HCVcc; Hepatitis C virus, Huh7.5, 72 h, HCVcc, CBD at single concentration 10 μM, Huh7.5 cells, 72 hr, read-out: Percentage virus inhibition) | Activity against HCV in vitro / inhibition of viral replication (in words) (HCVcc; in vitro, single-dose assay) | Percentage virus inhibition (HBV; Lamivudine at 2 (row head pM)) | cytotoxicity at 6 days, 2 µM (printed pM) ([3]; Lamivudine at 2 (row head pM)) |
| --- | --- | --- | --- | --- | --- | --- | --- | --- | --- | --- | --- | --- | --- | --- |
| C=C(C)[C@@H]1CCC(C)=C[C@H]1c1c(O)cc(CCCCC)cc1O [CBD, Cannabidiol] | 3.16 µM | dose-dependent inhibition | 0% | not against HBV; also recorded: not active | 15.7 ± 0.25 µM | minimal toxicity | 2.7% | significant cytotoxicity | 65.7% | 84.6% | 86.4% | active against HCV | – | – |
| CC(C)OC(=O)[C@H](C)N[P@](=O)(OC[C@H]1O[C@@H](n2ccc(=O)[nH]c2=O)[C@](C)(F)[C@@H]1O)Oc1ccccc1 [Sofosbuvir, reference compound] | 0.055 ± 0.0104 µM | – | – | – | > 10 µM | – | – | – | – | – | – | – | – | – |
| Nc1ccn([C@@H]2CS[C@H](CO)O2)c(=O)n1 [Lamivudine, reference compound] | – | – | – | – | – | – | – | – | – | – | – | – | 97.7% | 0% |
